From US10294202B2, “Pyrrolidinones as herbicides” (FMC Corporation, priority 2013, dated 2019)

Key:
barnyardgrass = experiment: Test A pre-/postemergence herbicide test; type: in vivo, Echinochloa crus-galli
Method in brief: (§1)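 Scoring was visual, relative to untreated controls, on a 0–100 scale after about 10 greenhouse days. Preemergence treatment used a directed soil spray over seeded loam/sand; postemergence treatment targeted one- to two-leaf plants of 2–10 cm.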

pigweed = experiment: Test A pre-/postemergence herbicide test; type: in vivo, Amaranthus retroflexus
Method in brief: as §1

wheat = experiment: Test A pre-/postemergence herbicide test; type: in vivo, Triticum aestivum; conditions: Postemergence
Method in brief: as §1

corn [1] = experiment: Test A pre-/postemergence herbicide test; type: in vivo, Zea mays; conditions: Postemergence
Method in brief: as §1

ryegrass, Italian = experiment: Test C pre-/postemergence herbicide test; type: in vivo, Lolium multiflorum
Method in brief: (§2)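 Response scores range from 0, meaning no effect, to 100, meaning complete control, assigned visually by comparison with controls roughly two weeks (13 to 15 days) after spraying. Applications were made preemergence to seeded loam–sand soil and postemergence to 1- to 4-leaf plants.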

wheat (winter wheat) = experiment: Test C pre-/postemergence herbicide test; type: in vivo, Triticum aestivum; conditions: for Plant response rating, Wheat: Postemergence
Method in brief: as §2

galium = experiment: Test C pre-/postemergence herbicide test; type: in vivo, Galium aparine
Method in brief: as §2

corn [2] = experiment: Test C pre-/postemergence herbicide test; type: in vivo, Zea mays
Method in brief: as §2

crabgrass, large = experiment: Test C pre-/postemergence herbicide test; type: in vivo, Digitaria sanguinalis
Method in brief: as §2

foxtail, giant = experiment: Test C pre-/postemergence herbicide test; type: in vivo, Setaria faberii
Method in brief: as §2

johnsongrass = experiment: Test C pre-/postemergence herbicide test; type: in vivo, Sorghum halepense
Method in brief: as §2

morningglory = experiment: Test C pre-/postemergence herbicide test; type: in vivo, Ipomoea coccinea
Method in brief: as §2

soybean = experiment: Test C pre-/postemergence herbicide test; type: in vivo, Glycine max
Method in brief: as §2

[3] = Postemergence, 500 g ai/ha, 0 to 100 scale (0 no effect, 100 complete control)
[4] = Preemergence, 125 g ai/ha, 0 to 100 scale where 0 is no effect and 100 is complete control
[5] = preemergence, 500 g ai/ha, 0 to 100 scale, 0 is no effect and 100 is complete control
[6] = 500 g ai/ha, 0 to 100 scale (0 no effect, 100 complete control)
[7] = Postemergence, 31 g ai/ha, scale 0 to 100 (0 no effect, 100 complete control)
[8] = Postemergence, 62 g ai/ha, scale 0 (no effect) to 100 (complete control)
[9] = Postemergence, 125 g ai/ha, scale 0 to 100 (0 no effect, 100 complete control)
[10] = Postemergence, 250 g ai/ha, scale 0 to 100 (0 no effect, 100 complete control)
[11] = Preemergence, 31 g ai/ha, scale 0 to 100, 0 is no effect and 100 is complete control
[12] = Preemergence, 62 g ai/ha, scale 0 to 100 (0 no effect, 100 complete control)
[13] = Preemergence, 125 g ai/ha, scale 0 to 100 (0 no effect, 100 complete control)

`O=C1NCC(c2cccc(Cl)c2)C1C(=O)Nc1cccc(F)c1F` (racemic) [Compound 275] was tested, and the “Plant response rating, Barnyardgrass” value (barnyardgrass; Postemergence, 125 g ai/ha, 0 to 100 scale, 0 is no effect, 100 is complete control) was 90, the “Plant response rating, Barnyardgrass” value (barnyardgrass; [3]) was 90 and the “Plant response rating, Barnyardgrass” value (barnyardgrass; [4]) was 90. For the same compound, the “Plant response rating, Barnyardgrass” value (barnyardgrass; [5]) was 90, the “Plant response rating, Pigweed” value (pigweed; Postemergence, 125 g ai/ha, visual rating on 0 to 100 scale (0 no effect, 100 complete control), approx. 10 days) was 30 and the “Plant response rating, Pigweed” value (pigweed; [3]) was 40. For the same compound, the “Plant response rating, Pigweed” value (pigweed; [4]) was 20, the “Plant response rating, Pigweed” value (pigweed; [5]) was 30 and the “Plant response rating, Wheat” value (wheat; 125 g ai/ha, visual rating on 0 to 100 scale (0 no effect, 100 complete control), approx. 10 days) was 40. The “Plant response rating, Wheat” value (wheat; [6]) was 70, the “Plant response rating, Corn” value (corn [1]; 125 g ai/ha, 0 to 100 scale, 0 is no effect, 100 is complete control) was 40 and the “Plant response rating, Corn” value (corn [1]; [6]) was 90. For the same compound, the “Plant response rating, Ryegrass, Italian” value (ryegrass, Italian; [7]) was 0, the “Plant response rating, Ryegrass, Italian” value (ryegrass, Italian; [8]) was 0 and the “Plant response rating, Ryegrass, Italian” value (ryegrass, Italian; [9]) was 5. For the same compound, the “Plant response rating, Ryegrass, Italian” value (ryegrass, Italian; [10]) was 25, the “Ryegrass, Italian plant response rating” value (ryegrass, Italian; [11]) was 15 and the “Ryegrass, Italian plant response rating” value (ryegrass, Italian; [12]) was 40. For the same compound, the “Plant response rating, Ryegrass, Italian” value (ryegrass, Italian; [13]) was 50, the “Plant response rating (scale of 0 to 100), Ryegrass, Italian” value (ryegrass, Italian; Preemergence, 250 g ai/ha) was 60 and the “Plant response rating, Wheat” value (wheat (winter wheat); 31 g ai/ha, scale 0 to 100 (0 no effect, 100 complete control)) was 0. For the same compound, the “Plant response rating, Wheat” value (wheat (winter wheat); 62 g ai/ha, scale 0 (no effect) to 100 (complete control)) was 0, the “Plant response rating, Wheat” value (wheat (winter wheat); 125 g ai/ha, scale 0 to 100 (0 no effect, 100 complete control)) was 0 and the “Plant response rating, Wheat” value (wheat (winter wheat); 250 g ai/ha, scale 0 to 100 (0 no effect, 100 complete control)) was 0. For the same compound, the “Wheat plant response rating” value (wheat (winter wheat); [11]) was 5, the “Wheat plant response rating” value (wheat (winter wheat); [12]) was 45 and the “Plant response rating (scale of 0 to 100), Wheat” value (wheat (winter wheat); Preemergence, 250 g ai/ha) was 90. The “Plant response rating, Galium” value (galium; [7]) was 50, the “Plant response rating, Galium” value (galium; [8]) was 55 and the “Plant response rating, Galium” value (galium; [9]) was 75. For the same compound, the “Plant response rating, Galium” value (galium; [10]) was 80, the “Galium plant response rating” value (galium; [11]) was 0 and the “Galium plant response rating” value (galium; [12]) was 90. The “Plant response rating, Galium” value (galium; [13]) was 30, the “Plant response rating (scale of 0 to 100), Galium” value (galium; Preemergence, 250 g ai/ha) was 85 and the “Plant response rating, Corn” value (corn [2]; [7]) was 0. The “Plant response rating, Corn” value (corn [2]; [8]) was 0, the “Plant response rating, Corn” value (corn [2]; [9]) was 0 and the “Plant response rating, Corn” value (corn [2]; [10]) was 55. The “Corn plant response rating” value (corn [2]; [11]) was 0, the “Corn plant response rating” value (corn [2]; [12]) was 10 and the “Plant response rating, Corn” value (corn [2]; [13]) was 75. The “Plant response rating (scale of 0 to 100), Corn” value (corn [2]; Preemergence, 250 g ai/ha) was 75, the “Plant response rating, Crabgrass, Large” value (crabgrass, large; [7]) was 15 and the “Plant response rating, Crabgrass, Large” value (crabgrass, large; [8]) was 40. The “Plant response rating, Crabgrass, Large” value (crabgrass, large; [9]) was 65, the “Plant response rating, Crabgrass, Large” value (crabgrass, large; [10]) was 85 and the “Crabgrass, Large plant response rating” value (crabgrass, large; [11]) was 90. For the same compound, the “Crabgrass, Large plant response rating” value (crabgrass, large; [12]) was 95, the “Plant response rating, Crabgrass, Large” value (crabgrass, large; [13]) was 100 and the “Plant response rating (scale of 0 to 100), Crabgrass, Large” value (crabgrass, large; Preemergence, 250 g ai/ha) was 100. For the same compound, the “Plant response rating, Foxtail, Giant” value (foxtail, giant; [7]) was 10, the “Plant response rating, Foxtail, Giant” value (foxtail, giant; [8]) was 75 and the “Plant response rating, Foxtail, Giant” value (foxtail, giant; [9]) was 35. For the same compound, the “Plant response rating, Foxtail, Giant” value (foxtail, giant; [10]) was 90, the “Foxtail, Giant plant response rating” value (foxtail, giant; [11]) was 90 and the “Foxtail, Giant plant response rating” value (foxtail, giant; [12]) was 95. The “Plant response rating, Foxtail, Giant” value (foxtail, giant; [13]) was 98, the “Plant response rating (scale of 0 to 100), Foxtail, Giant” value (foxtail, giant; Preemergence, 250 g ai/ha) was 100 and the “Plant response rating, Johnsongrass” value (johnsongrass; [7]) was 0. For the same compound, the “Plant response rating, Johnsongrass” value (johnsongrass; [8]) was 0, the “Plant response rating, Johnsongrass” value (johnsongrass; [9]) was 0 and the “Plant response rating, Johnsongrass” value (johnsongrass; [10]) was 25. For the same compound, the “Johnsongrass plant response rating” value (johnsongrass; [11]) was 10, the “Johnsongrass plant response rating” value (johnsongrass; [12]) was 50 and the “Plant response rating, Johnsongrass” value (johnsongrass; [13]) was 75. The “Plant response rating (scale of 0 to 100), Johnsongrass” value (johnsongrass; Preemergence, 250 g ai/ha) was 85, the “Plant response rating, Morningglory” value (morningglory; [7]) was 10 and the “Plant response rating, Morningglory” value (morningglory; [8]) was 10. For the same compound, the “Plant response rating, Morningglory” value (morningglory; [9]) was 20, the “Plant response rating, Morningglory” value (morningglory; [10]) was 20 and the “Morningglory plant response rating” value (morningglory; [11]) was 0. For the same compound, the “Morningglory plant response rating” value (morningglory; [12]) was 0, the “Plant response rating, Morningglory” value (morningglory; [13]) was 0 and the “Plant response rating (scale of 0 to 100), Morningglory” value (morningglory; Preemergence, 250 g ai/ha) was 50. The “Plant response rating, Soybean” value (soybean; [7]) was 0, the “Plant response rating, Soybean” value (soybean; [8]) was 0 and the “Plant response rating, Soybean” value (soybean; [9]) was 0. The “Plant response rating, Soybean” value (soybean; [10]) was 10, the “Soybean plant response rating” value (soybean; [11]) was 0 and the “Soybean plant response rating” value (soybean; [12]) was 0. For the same compound, the “Plant response rating, Soybean” value (soybean; [13]) was 0 and the “Plant response rating (scale of 0 to 100), Soybean” value (soybean; Preemergence, 250 g ai/ha) was 15.
